Results from ChEMBL document CHEMBL6092182, “Enhanced Plasma Stability and Potency of Aryl/Acyloxy Prodrugs of a BTN3A1 Ligand” (ACS Med Chem Lett, 2024).

Assays:
[1] = Prodrug conversion in human K562 cells assessed as formation of mono-anion metabolite by measuring metabolite peak intensity at 100 uM incubated for 1 hr by LCMS analysis; type: functional
[2] = Stimulation of IL-2-treated human Vgamma9Vdelta2 T cell proliferation incubated for 72 hrs followed by compound washout measured after 11 days by flow cytometry; type: functional, cell-based
[3] = Stimulation of IL-2-treated human Vgamma9Vdelta2 T cell proliferation assessed as IFN-gamma release pretreated human […] cells with compound for 1 hr followed by compound washout and addition of washed K562 cells to medium containing Vgamma9Vdelta2 T cells measured after 20 hrs by ELISA; type: functional, cell-based
[4] = Prodrug conversion in human plasma assessed as formation of di-anion metabolite by measuring metabolite peak intensity at 100 uM incubated for 1 hr by LCMS analysis; type: ADME, cell-free; set-up: unit not given here
[5] = Prodrug conversion in human plasma assessed as formation of mono-anion metabolite by measuring metabolite peak intensity at 100 uM incubated for 1 hr by LCMS analysis; type: ADME, cell-free
[6] = Stability in human plasma assessed as compound remaining at 100 uM measured after 2 hrs by MS analysis; type: ADME, cell-free; settings: for Stability: 2 h, 100 µM
[7] = Prodrug conversion in human K562 cells assessed as formation of di-anion metabolite by measuring metabolite peak intensity at 100 uM incubated for 1 hr by LCMS analysis; type: functional
[8] = Stability in mouse plasma assessed as compound remaining measured after 2 hrs by MS analysis; type: ADME, cell-free
[9] = Prodrug conversion in human plasma assessed as formation of Ac-monoanion metabolite by measuring metabolite peak intensity at 100 uM incubated for 1 hr by LCMS analysis; type: ADME, cell-free
[10] = Prodrug conversion in human K562 cells assessed as formation of Ac-monoanion metabolite by measuring metabolite peak intensity at 100 uM incubated for 1 hr by LCMS analysis; type: functional
[11] = Stability in human plasma assessed as half life at 100 uM by LCMS analysis; type: ADME, cell-free
[12] = Stability in rat plasma assessed as compound remaining measured after 2 hrs by MS analysis; type: ADME, cell-free
[13] = Stability in mouse plasma assessed as half life measured after 2 hrs by MS analysis; type: ADME, cell-free

Compound | Activity [1] | EC50 [2] | EC50 [3] | Activity [4] | Activity [5] | Stability [6] | Activity [7] | Stability [8] | Activity [9] | Activity [10] | t1/2 [11] | Stability [12] | t1/2 [13] | remaining at 2 h, 100 µM ([6]; read-out: Stability)
CC(=O)OC/C(C)=C/CCP(=O)(OCOC(=O)c1ccccc1)Oc1ccc(C(C)C)cc1 (stereo unspecified) | 8800 | 0.27 nM | 2.6 nM | 0 | 300 | 34% | 870 | Stable | 12000 | 180 | 66 min |  |  | 
COc1ccc(C(=O)OCOP(=O)(CC/C=C(\C)COC(C)=O)Oc2ccc(C(C)C)cc2)cc1 (stereo unspecified) | 3900 | 0.84 nM | 4.1 nM | 0 | 830 | 62% | 360 | Stable | 3500 | 18 | 180 min |  |  | 
CC(=O)OC/C(C)=C/CCP(=O)(OCOC(=O)CC1CCOCC1)Oc1ccc(C(C)C)cc1 (stereo unspecified) | 6300 | 0.44 nM | 3.5 nM | 0 | 3000 | 28% | 1000 | Stable | 6100 | 49 | 42 min |  |  | 
CC(=O)OC/C(C)=C/CCP(=O)(OCOC(=O)CC1CCOCC1)Oc1cccc2ccccc12 (stereo unspecified) | 3000 | 0.66 nM | 5.4 nM | 0 | 2800 | 7% | 880 | Stable | 2900 | 4 | 15 min |  |  | 
C/C(=C\CCP(=O)(OCOC(=O)CC1CCOCC1)Oc1ccc(C(C)C)cc1)CO (stereo unspecified) | 6600 | 0.53 nM | 2.2 nM | 0 | 16000 | 0% | 640 | Stable |  |  |  |  |  | 
C/C(=C\CCP(=O)(OCOC(=O)CC1CCCCC1)Oc1ccc(C(C)C)cc1)CO (stereo unspecified) | 4800 | 1.1 nM | 2.8 nM | 0 | 4500 | 80% | 500 | Stable |  |  | 94 min |  |  | 
C/C(=C\CCP(=O)(OCOC(=O)CC1CCOCC1)Oc1cccc2ccccc12)CO (stereo unspecified) | 3200 | 0.37 nM | 4.8 nM | 0 | 11000 | 0% | 690 | Stable |  |  | 5.9 min | 65% | 5.6 min | 
C/C(=C\CCP(=O)(OCOC(=O)C1CCCCC1)Oc1ccccc1)CO (stereo unspecified) |  |  |  |  |  |  |  |  |  |  |  |  |  | 0%
COc1ccc(C(=O)OCOP(=O)(CC/C=C(\C)CO)Oc2ccc(C(C)C)cc2)cc1 (stereo unspecified) | 6000 | 1.5 nM | 6.4 nM | 0 | 5900 | 71% | 590 | Stable |  |  | 500 min |  |  | 
CC(=O)OC/C(C)=C/CCP(=O)(OCOC(=O)CC1CCCCC1)Oc1ccc(C(C)C)cc1 (stereo unspecified) | 3900 | 0.54 nM | 3 nM | 0 | 330 | 90% | 410 | Stable | 2400 | 54 | 750 min |  |  | 
C/C(=C\CCP(=O)(OCOC(=O)c1ccccc1)Oc1ccc(C(C)C)cc1)CO (stereo unspecified) | 10000 | 0.43 nM | 7 nM | 0 | 7900 | 13% | 830 | Stable |  |  |  |  |  | 
CC(=O)OC/C(C)=C/CCP(=O)(OCOC(=O)C1CCOCC1)Oc1ccc(C(C)C)cc1 (stereo unspecified) | 8200 | 1.2 nM | 2.2 nM | 0 | 3200 | 0% | 1700 | Stable | 9900 | 67 | 16 min |  |  | 
C/C(=C\CCP(=O)(OCOC(=O)C1CCOCC1)Oc1ccc(C(C)C)cc1)CO (stereo unspecified) | 18000 | 0.97 nM | 0.89 nM | 0 | 13000 | 0% | 1500 | Stable |  |  | 11 min |  |  | 
